Data taken from patent US4663311A, “Derivatives of muramyl-peptides and of steroids having macrophage-activating properties” (priority 1983, dated 1987).

What was measured:
[1] = system: B16-BL6 melanoma; experiment: Cytotoxicity against B16-BL6 melanoma cocultured with treated rat alveolar macrophages (125I-deoxyuridine remaining); assay type: cell-based
Experimental: The macrophages used are alveolar macrophages of F344 male rats of 200 gm. The macrophages are obtained by washing the lung with 9×5 ml of PBS medium of DULBECCO without calcium or magnesium, of rats anesthesitized with 0.5 ml 5% Nembutal ip (Laboratoires Abbott S.A.) and bled by incision of an artery of the kidney. After centrifugation, they are resuspended in MEM (Minimal Essential Medium) supplemented with 5% of inactivated fetal calf serum (Gibco), glutamine, sodium pyruvate, non-essential amino acids, vitamins and antibiotics (penicillin and streptomycine).
The suspension is then adjusted to 5×10^5 macrophages/ml and redistributed in the proportion of 100 μl per cup in a TITERTEK plastic dish of 96 cups. After incubation for 4 hours, the macrophages have adhered; the non-adherent cells (less than 5%) are removed by aspiration of the medium and two washings with incubation medium. […]
After 96 hours of coculture, the dead cells are removed by 3 washings of each cup with 200 μl of PBS of DULBECCO medium. […] The radioactivity remaining in each cup is counted in a gamma counter (BECKMAN GAMMA 4000). […]
the antitumoral activity of the macrophages is expressed as a cytotoxicity percentage (%CYT): [formula] where T=^125 I-deoxyuridine remaining in the untreated macrophages+tumoral cells coculture; and […]

[2] = system: influenza virus A/PR 8; experiment: Anti-viral activity in experimental influenza infection of Swiss mice; assay type: in vivo, mouse
Source text: The anti-viral activity has been evaluated in an experimental infection system. Swiss mice aged 10 weeks were used. The virus chosen was that of the influenza virus A/PR 8.
At day D-0, the animals received by the intra-nasal route 50 microliters of a viral dilution at 1/10^4.
An anti-viral activity of the tested compound has been found both in preventive and curative experiments (prevention). The administration of one mg of compound by the intra-nasal route one day prior to the viral dilution produced the survival of 67% of the animals.
When the compounds were used at the curative level, the best results were obtained when 0.5 mg of the compound was administered sub-cutaneously one day after the administration of the viral dilution. 71% of the animals survived.

[3] = system: Mastocytoma P815; experiment: Growth inhibition of mastocytoma P815 cocultured with treated mouse peritoneal macrophages (tritiated thymidine incorporation); assay type: cell-based; settings: MTP-chol in liposomes at 2 μg/ml (400 μg liposomes/ml) or 1 μg/ml (200 μg liposomes/ml) vs 50 μg of MDP
Experimental: I. The microphages used are peritoneal macrophages from eight week old female BDF 1 mice. They have been brought into the peritoneal cavity by i.p. injection 4 days earlier, of 1.5 ml of a sterile inflammatory irritant, thioglycollate medium (marketed by Institut Pasteur Production).
The peritoneal cells are obtained by peritoneal washing with 5 ml of MEM medium (see below) of mice previously killed by cervical dislocation and bled by decapitation.
After centrifugation, they are replaced in suspension in MEM (Minimal Essential Medium, Institut Pasteur Production) supplemented with 5% of inactivated fetal calf serum (gibco), and antibiotics (penicillin+streptomycine).
The macrophages are identified by microscope by their aptitude to endocyte neutral red and counted on an aliquot portion.
The suspension is then adjusted to 2.10^6 macrophages/ml and distributed in the proportion of 250 μl per cup in a Microtest II (NUNCLON) plastic box of 96 cups.
The disk is placed in an oven (HERAEUS) at 37° C. in an air atmosphere+5% water-saturated CO2. […]
The portion of filter corresponding to each cup is cut out and counted in the presence of scintillation liquid (LIPOLUMAC, LUMA) in a scintillation counter (RACKBETA, LKB). […]
The antitumoral activity of the macrophages is expressed as a percentage of growth inhibition: (%IC) [formula] […]

CC(=O)N[C@@H]1[C@@H](OC(C)C(=O)N[C@@H](C)C(=O)N[C@H](CCC(=O)N[C@@H](C)C(=O)O[C@H]2CC[C@@]3(C)C(=CC[C@H]4[C@@H]5CC[C@H]([C@H](C)CCCC(C)C)[C@@]5(C)CC[C@@H]43)C2)C(N)=O)[C@H](O)[C@@H](CO)O[C@@H]1O (stereo partly drawn) [MTP-chol, N-acetyl-muramyl-L-alanyl-D-isoglutaminyl-L-alanyl-cholsteryl ester]
concentration of MTP-chol in the liposomes that significantly activates the macrophages ([1]; 40 μg phospholipid/ml): > 0.0017 µg/mL | concentration of MTP-chol in the liposomes that significantly activates the macrophages ([1]; 400 μg phospholipid/ml): more than 0.017 μg/ml | animals survived ([2]; curative: 0.5 mg sub-cutaneously one day after the viral dilution): 71% | survival of the animals ([2]; preventive: one mg intra-nasal one day prior to the viral dilution): 67% | activation of macrophages compared with MDP [3]: activates the macrophages significantly more than 50 μg of MDP does
